These results are taken from EP4647428A1, “COMPOUND CONTAINING 2-METHYL-2-(3-(PIPERIDIN-3-YL)PHENOXY)-2-METHYLPROPANAMIDE SKELETON” (Jiangsu Mingsheng Jutai Biotechnology Co. Ltd, priority 2023, dated 2024).

One may read the IC50 as the concentration that inhibits the measured activity by half. A high value points to a need for much substance.

For one assay, the system named is SW480. Put plainly: CCK8 cell inhibition test on SW480 cells. As to conditions: CCK-8, SW480 cells, 24 hours incubation at 37°C, compound 20 µM to 0.15625 µM in DMEM (2% FBS). In kind it is cell-based. The protocol: Cells were digested, counted, and plated in a 96-well plate (flat-bottomed, transparent) with 10,000 cells/100 µl DMEM (10% FBS) per well . • 2. Observe the cell status on the next day and start adding drugs after the cells have fully adhered to the wall; • 3. Dilute the compound in DMEM (2% FBS) in a serial dilution format to concentrations of 20 µM, 10 µM, 5 µM, 2.5 µM, 1.25 µM, 0.625 µM, 0.3125 µM, 0.15625 µM, and 0 µM (with equal volume of DMSO). • 4. Add 100 µl of the above compounds at different concentrations to each well. Repeat for each concentration gradient in duplicate. Leave three blank wells (add only DMEM 2% FBS culture medium without cells) . • 5. Incubate at 37°C for 24 hours . • 6. Add 10 µl of CCK-8 Enhanced Solution to each well. Since the amount of CCK-8 added to each well is relatively small, there may be errors due to the reagent sticking to the well wall. It is recommended to gently tap the culture plate after adding the reagent to help mix it. • 7. Incubate in the incubator for 0.5-4 hours: The amount of formazan formed varies depending on the cell type. In most cases, incubation for 1 hour is sufficient. If color development is insufficient, continue incubation to confirm optimal conditions. • 8. Measure the absorbance at 450nm and 600nm (excluding interference from the reagent background color and the absorbance of the well plate itself); • 9. The final absorbance value is OD450nm-OD600nm, and the inhibition rate is calculated; Inhibition rate = [(Ac−As)/(Ac−Ab)] × 100% [formula] • As: absorbance of the experimental well (culture medium containing cells, CCK-8, and drug to be tested); • Ac: absorbance of control wells (culture medium containing cells, CCK-8, and no test drug); • Ab: absorbance of blank wells (culture medium without cells, test drugs, or CCK-8).
A general note: Tetrazolium dyes change colour on reduction, which living cells bring about.
As to `CC(C)(Oc1cccc(C2CCCN(C(=O)NCCc3ccc(-c4cn[nH]c4)cc3)C2)c1)C(=O)NCC(=O)N1CCCC1CN` (centres unmarked) [Compound 115-021, N-(4-(1H-pyrazol-4-yl)phenethyl)-3-(3-((1-((2-(2-(aminomethyl)pyrrolidin-1-yl)-2-oxoethyl)amino)-2-methyl-1-oxopropanoyl)oxy)phenyl)piperidine-1-carboxamide], the “SW480 IC50(µM)” value is “Inactive”.

Compound “N-(2-((S)-2-(2-aminoethyl)pyrrolidin-1-yl)-2-oxoethyl)-2-(3-(1-((4'-isopropyl-[1,1'-biphenyl]-3-yl)sulf onylpiperidin-3-yl)phenoxy)-2-methylpropanamide) [Compound 115-014]” returned an IC50 of 52.9 µM. This counts as double-digit micromolar.

`CC(C)(Oc1cccc(C2CCCN(S(=O)(=O)c3cccc(-c4cn[nH]c4)c3)C2)c1)C(=O)NS(=O)(=O)c1ccc(C(F)(F)F)cc1` (centres unmarked) [Compound 115-025, 2-(3-(1-((3-(1H-pyrazol-4-yl)phenyl)sulfonyl)piperidin-3-yl)phenoxy)-2-methyl-N-((4-(trifluoromethyl)phenyl)sulfonyl)propionamide]: the “SW480 IC50(µM)” value is recorded as “Inactive”.

With `CC(C)(Oc1cccc(C2CCCN(C(=O)NCc3ccc(-c4cn[nH]c4)cc3)C2)c1)C(=O)NCC(=O)N1CCCC1CN` (centres unmarked) [Compound 115-020, N-(4-(1H-pyrazol-4-yl)benzyl)-3-(3-((1-((2-(2-(aminomethyl)pyrrolidin-1-yl)-2-oxoethyl)amino)-2-methyl-1-oxopropanoyl)oxy)phenyl)piperidine-1-carboxamide], the “SW480 IC50(µM)” value was “Inactive”.

`CC(C)(Oc1cccc(C2CCCN(S(=O)(=O)c3ccc(-c4cn[nH]c4)cc3)C2)c1)C(=O)NS(=O)(=O)c1ccc(C(F)(F)F)cc1` (centres unmarked) [Compound 115-026, 2-(3-(1-((4-(1H-pyrazol-4-yl)phenyl)sulfonyl)piperidin-3-yl)phenoxy)-2-methyl-N-((4-(trifluoromethyl)phenyl)sulfonyl)propionamide]: the “SW480 IC50(µM)” value is given as “Inactive”.

The same assay, now with this note: Homo sapiens; CCK-8, SW480 cells, 24 hours incubation at 37°C, compound 20 µM to 0.15625 µM in DMEM (2% FBS).
Compound `CC(C)(Oc1cccc(C2CCCN(C(=O)CCc3ccc(-c4cn[nH]c4)cc3)C2)c1)C(=O)NCC(=O)N1CCCC1CN` (centres unmarked) [Compound 115-029, 2-(3-(1-(3-(4-(1H-pyrazol-4-yl)phenyl)propionyl)piperidin-3-yl)phenoxy)-N-(2-(2-(aminomethyl)pyrrolidin-1-yl)-2-oxoethyl)-2-methylpropionamide] gave an IC50 of 20.8 µM.

On to `CC(C)c1ccc(-c2cccc(S(=O)(=O)N3CCCC(c4cccc(OC(C)(C)C(=O)NCC(=O)N5CC[C@H](CN)C5)c4)C3)c2)cc1` (some centres unmarked) [Compound 115-013], for which the IC50 stood at 3.12 µM.

`CC(C)n1cc(-c2cccc(S(=O)(=O)N3CCCC(c4cccc(OC(C)(C)C(=O)NCC(=O)N5CCCC5CN)c4)C3)c2)cn1` (centres unmarked) [Compound 115-022, N-(2-(2-(Aminomethyl)pyrrolidin-1-yl)-2-oxoethyl)-2-(3-(1-((3-(1-isopropyl-1H-pyrazol-4-yl)phenyl)sulfonyl)piperidin-3-yl)phenoxy)-2-methylpropanamide] came in with an IC50 of 9.71 µM.

`CC(C)(Oc1cccc(C2CCCN(S(=O)(=O)c3cccc(-c4cn[nH]c4)c3)C2)c1)C(=O)NCC(=O)N1CCCC1CN` (centres unmarked) [Compound 115-023, 2-(3-(1-((3-(1H-pyrazol-4-yl)phenyl)sulfonyl)piperidin-3-yl)phenoxy)-N-(2-(2-(aminomethyl)pyrrolidin-1-yl)-2-oxoethyl)-2-methylpropanamide] showed an IC50 of 30.5 µM.

Compound `CC(C)c1ccc(-c2cncc(S(=O)(=O)N3CCCC(c4cccc(OC(C)(C)C(=O)NCC(=O)N5CCCC5CN)c4)C3)c2)cc1` (centres unmarked) [Compound 115-055, N-(2-(2-(Aminomethyl)pyrrolidin-1-yl)-2-oxoethyl)-2-(3-(1-((5-(4-isopropylphenyl)pyridin-3-yl)sulfonyl)piperidin-3-yl)phenoxy)-2-methylpropanamide] registered an IC50 of 4.06 µM.

As for `CC(C)c1ccc(-c2cccc(S(=O)(=O)N3CCC=C(c4cccc(OC(C)(C)C(=O)NCC(=O)N5CCCC5CN)c4)C3)c2)cc1` (centres unmarked) [Compound 115-049, N-(2-(2-(Aminomethyl)pyrrolidin-1-yl)-2-oxoethyl)-2-(3-(1-((4'-isopropyl-[1,1'-biphenyl]-3-yl)sulfonyl)-1,2,5,6-tetrahydropyridin-3-yl)phenoxy)-2-methylpropanamide], the IC50 was ≤ 2.65 µM.

For `CC(C)c1ccc(-c2cccc(S(=O)(=O)N3CCCC(c4cccc(OC(C)(C)C(=O)NS(=O)(=O)N5CCC[C@@H]5CN)c4)C3)c2)cc1` (stereo partly drawn) [Compound 115-017, N-(2-(R)-(Aminomethyl)pyrrolidin-1-yl)sulfonyl)-2-(3-(1-((4'-isopropyl-[1,1'-biphenyl]-3-yl)sulfonylpiperidin-3-yl)phenoxy)-2-methylpropionamide], the IC50 amounted to 10.6 µM. In other words, the double-digit micromolar range.

`CC(C)c1ccc(-c2cccc(S(=O)(=O)N3CCCC(c4cccc(OC(C)(C)C(=O)NS(=O)(=O)c5ccc(C(F)(F)F)cc5)c4)C3)c2)cc1` (centres unmarked) [Compound 115, reference compound] displayed an IC50 of 2.81 µM.

`CC(C)c1ccc(-c2ccc(CC(=O)N3CCCC(c4cccc(OC(C)(C)C(=O)NCC(=O)N5CCCC5CN)c4)C3)cc2)cc1` (centres unmarked) [Compound 115-031, N-(2-(2-(Aminomethyl)pyrrolidin-1-yl)-2-oxoethyl)-2-(3-(1-(2-(4'-isopropyl-[1,1'-biphenyl]-4-yl)acetyl)piperidin-3-yl)phenoxy)-2-methylpropanamide] displayed an IC50 of 6.99 µM.

Turning to `CC(C)c1ccc(-c2cccc(S(=O)(=O)N3CCCC(c4cccc(OC(C)(C)C(=O)NCC(=O)N5CCC[C@@H]5CN)c4)C3)c2)cc1` (some centres unmarked) [Compound 115-011], the IC50 lay within 3.12 to 6.25 µM.

In the case of `CC(C)c1ccc(-c2cccc(S(=O)(=O)N3CCCC(c4cccc(OC(C)(C)C(=O)NCC(=O)N5CCCC5CN)c4)C3)n2)cc1` (centres unmarked) [Compound 115-052, N-(2-(2-(aminomethyl)pyrrolidin-1-yl)-2-oxoethyl)-2-(3-(1-((6-(4-isopropylphenyl)pyridin-2-yl)sulfonyl)piperidin-3-yl)phenoxy)-2-methylpropanamide], the IC50 is ≤ 2.74 µM.

On to `CC(C)n1cc(-c2cccc(S(=O)(=O)N3CCCC(c4cccc(OC(C)(C)C(=O)NS(=O)(=O)c5ccc(C(F)(F)F)cc5)c4)C3)c2)cn1` (centres unmarked) [Compound 115-024, 2-(3-(1-((3-(1-isopropyl-1H-pyrazol-4-yl)phenyl)sulfonyl)piperidin-3-yl)phenoxy)-2-methyl-N-((4-(trifluoromethyl)phenyl)sulfonyl)propionamide], for which the IC50 is 11.1 µM. This counts as double-digit micromolar.

Take `CC(C)c1ccc(-c2ccc(C(=O)N3CCCC(c4cccc(OC(C)(C)C(=O)NCC(=O)N5CCCC5CN)c4)C3)cc2)cc1` (centres unmarked) [Compound 115-030]: the 50% inhibitory concentration (IC50) lay within 3.12 to 6.25 µM.

For `CC(C)(Oc1cccc(C2CCCN(C(=O)c3ccc(-c4cn[nH]c4)cc3)C2)c1)C(=O)NCC(=O)N1CCCC1CN` (centres unmarked) [Compound 115-027, 2-(3-(1-(4-(1H-pyrazol-4-yl)benzoyl)piperidin-3-yl)phenoxy)-N-(2-(2-(aminomethyl)pyrrolidin-1-yl)-2-oxoethyl)-2-methylpropanamide], inhibition was half-maximal at 23.1 µM (IC50).

Regarding `CC(C)(Oc1cccc(C2CCCN(C(=O)Cc3ccc(-c4cn[nH]c4)cc3)C2)c1)C(=O)NCC(=O)N1CCCC1CN` (centres unmarked) [Compound 115-028, 2-(3-(1-(2-(4-(1H-pyrazol-4-yl)phenyl)acetyl)piperidin-3-yl)phenoxy)-N-(2-(2-(aminomethyl)pyrrolidin-1-yl)-2-oxoethyl)-2-methylpropanamide], half-maximal inhibition (IC50) required 15.7 µM.
